Reference: patent US7897387B2, “Fungal cell wall synthesis gene” (Eisai R&D Management Co., Ltd., priority 2000, dated 2011)
Converted amounts (≈) assume the structure as drawn.

Legend:
Type in all cases: cell-based
[1] = tested on: S. cerevisiae CW63/GWT1 strain; experiment: Growth of GWT1-overexpressed S. cerevisiae CW63/GWT1 strain; conditions: for sensitivity or resistance of the GWT1-overexpressed strain: GWT1-overexpressed strain compared with wild type strain
Method: (§1) S. cerevisiae CW63 strain having a cephalosporinase gene as the reporter gene was cultured by the method according to Example A1, TRP1 of the integration vector was cleaved with EcoRV, and then transformation was carried out by the method of Example A1. GWT1-overexpressed strain (S. cerevisiae CW63/GWT1 strain) was obtained by culturing in SD(Trp^−) medium at 30° C. for 3 days.
(§2) Using S. cerevisiae CW63 strain and GWT1 gene introduced S. cerevisiae CW63/GWT1, activity of the aforementioned compound (Ia) was examined by a method according to the method described in Example A2.

[2] = tested on: process that transports GPI-anchored proteins to the cell wall; experiment: S. cerevisiae reporter system (cephalosporinase-CWP2 fusion, CW63 strain); conditions: S. cerevisiae reporter system of Example A2, cell wall fraction
Method: Since sensitivity of the enzyme reaction is better with cephalosporinase compared to lysozyme, S. cerevisiae introduced with pRCW63T (S. cerevisiae CW63 strain) was used for the screening of compounds.
(§3) After stationary cultivation in YPD liquid medium at 30° C. for 48 hours, the yeast cell culture was diluted 100 times with YPD liquid medium (3-5×10^5 cells/ml) and 75 μl/well aliquots thereof were inoculated into a V-bottomed 96-well plate containing 25 μl/well of a diluted test sample, and this was subjected to stationary cultivation at 30° C. for 48 hours. After centrifuging the plate, 25 μl of the supernatant was sampled and placed in a flat-bottomed 96-well plate, and this was used as the culture supernatant fraction.
The precipitated cells were suspended, and 75 μl/well aliquots of Zymolyase (Seikagaku Corporation) solution prepared with 2.4 M sorbitol were added and were allowed to react at 30° C. for 1 hour. After centrifuging the plate, 10 μl of the supernatant was sampled and placed in a flat-bottomed 96-well plate, 15 μl of phosphate buffer was added, and this was used as the cell wall fraction.
The cephalosporinase activities in the medium and in the cell wall fraction were measured by adding 200 μM of nitrocefin solution to a pooled sample, and after a certain period of time, stopping the reaction with citric acid buffer, and then measuring the absorbance at 490 nm.
Compounds were evaluated using the S. cerevisiae reporter system of Example A2. The lowest concentration at which cephalosporinase activity in the cell wall fraction became 50% or less compared to that obtained where the compound was not treated, was defined to be the IC50 value.

[3] = tested on: S. cerevisiae CW63 strain; experiment: Fungal growth of S. cerevisiae CW63 strain by visual observation; conditions: FIG. 2
Method: as §3
Furthermore, fungal growth in the presence of the test sample was determined by visual observation.

[4] = tested on: adhesion of C. albicans to animal cells; experiment: Adhesion of C. albicans to animal cells (IEC-18); conditions: 1.56 μg/ml, immobilized IEC-18 cells, FIG. 3
Method: Three-milliliter aliquots of IEC-18 cells (1×10^5 cells/ml in D-MEM medium (Nissui Pharmaceutical) containing 10% fetal calf serum and 2 mM glutamine) were placed in each well of a 6-well multi-well plate. The plate was incubated in a carbon dioxide gas incubator at 37° C. for 3 days, the culture supernatant was removed, and ethanol immobilization was carried out.
C. albicans cultured in Sabouraud Dextrose Liquid Medium containing various concentrations of the test sample at 30° C. for 48 hours was adjusted to 4×10^2 cells/ml, and 1 ml was inoculated into each well of the plate in which the immobilized IEC-18 cells were cultured. After cultivation at 30° C. for 1 hour, the culture supernatant was removed, washed with PBS, and then 2 ml of Sabouraud Dextrose Agar Medium (Difco) was superposed. After cultivation at 30° C. overnight, the number of colonies (CFU) that had grown was counted and the adhesion rate was calculated.

C. albicans = experiment: Growth of C. albicans in the presence of the compound
C. albicans cell wall = experiment: Transmission electron microscopy of the C. albicans cell wall; conditions: C. albicans cultured in the presence of the compound, compared to untreated cells
Method: C. albicans which was cultured in Sabouraud Dextrose Liquid Medium (5 ml) containing various concentrations of the test agent at 30° C. for 48 hours, then centrifuged, and collected, was immobilized by potassium permanganate immobilization method, and the transmission electron microscope image thereof was observed.
This flocculent fibrous structure was not influenced by other existing antifungal agents.

[5] = tested on: process that transports GPI-anchored proteins to the cell wall; experiment: Reporter system in S. cerevisiae overexpressing the GWT1 gene product (CW63/GWT1 strain); conditions: 0.39 to 1.56 μg/ml, FIG. 6
Method: as §1, §2

GWT1-deficient strain = experiment: Growth of GWT1-deficient S. cerevisiae strain
Method: His5 cassette containing the GWT1 sequence on both ends was amplified by PCR using the his5 gene of S. pombe (Longtine M S et al, Yeast, 14: 953-961, 1998) as template and SEQ ID NO:25 and SEQ ID NO:26 as primers.
S. cerevisiae G2-10 was cultured and the cells were collected by the method according to Example A1, and the abovementioned PCR product was transformed by the method according to Example A1. A GWT1-deficient strain was obtained by cultivation in SD(His^−) medium at 30° C. for 5 to 7 days.

[6] = tested on: mutant GWT1 gene (R1 or R5); experiment: Growth of GWT1-disrupted S. cerevisiae clone harbouring mutant GWT1 gene (R1 or R5) plasmid; conditions: chromosomal GWT1 disrupted, pRS316GWT1-R1 or pRS316GWT1-R5, medium containing the compound
Method: S. cerevisiae LW63 strain having a lysozyme gene as the reporter gene due to introduction of pRLW63T was treated with ethyl methanesulfonate, then by culturing in a SD medium containing the aforementioned compound of the formula (Ia) at concentrations of 1.56, 3.13, and 6.25 μg/ml at 37° C. for 3 days, five resistant mutant strains (R1 to R5) were obtained. […] To confirm whether or not these two mutant strains have mutations on the GWT1 gene, genomic DNAs were extracted from both mutant strains, and the nucleotide sequence of the GWT1 gene portion was determined. As a result, in the R1 mutant strain, guanine at position 1213 had been mutated to adenine. Furthermore, in the R5 mutant strain, guanine at position 418 had been mutated to adenine. Therefore, it was elucidated that in the R1 mutant strain, the 405th amino acid, […], and in the R5 mutant strain, the 140th amino acid, glycine, had been changed to arginine.
Next, to confirm whether or not these mutations are the cause of the acquisition of the specific resistant characteristic to the aforementioned compound of the formula (Ia), the mutant GWT1 gene (R1 or R5) was isolated using the genomic DNAs derived from both mutant strains as templates and the primers of SEQ ID NOs: 60 and 61. […]

Which “sensitivity or resistance of the GWT1-overexpressed strain” value (“sensitivity or resistance” below) [1] does the source give for `C[C@@H]1[C@H](O)[C@@H](C)/C=C/C=C/C=C/C=C/C=C/C=C/C=C/[C@H](O[C@@H]2O[C@H](C)[C@@H](O)[C@H](N)[C@@H]2O)C[C@@H]2O[C@](O)(C[C@@H](O)C[C@@H](O)[C@H](O)CC[C@@H](O)C[C@@H](O)CC(=O)O[C@H]1C)C[C@H](O)[C@H]2C(=O)O` [amphotericin B] here?
The value was “sensitive”.

With `CCCCc1ccc(Cc2nccc3ccccc23)cc1` [Example B2, 1-(4-Butylbenzyl)isoquinoline] as the compound, how does the “IC50 (lowest concentration at which cephalosporinase activity in the cell wall fraction became 50% or less compared to no compound)” value [2] read?
Its value is 0.39 µg/mL (≈ 1.42 µM).

Which “IC50 (lowest concentration at which cephalosporinase activity in the cell wall fraction became 50% or less compared to no compound)” value [2] does the source give for `CC(=O)N(C)CCCc1ccc(Cc2nccc3ccccc23)cc1` [Example B73, N-{3-[4-(1-isoquinolylmethyl)phenyl]propyl}-N1-methylacetamide] here?
The value was 50 µg/mL (≈ 150 µM).

Which “IC50 (lowest concentration at which cephalosporinase activity in the cell wall fraction became 50% or less compared to no compound)” value [2] does the source give for `CC(=O)NCC#Cc1ccc(Cc2nccc3ccccc23)cc1` [Example B60, N-{3-[4-(1-Isoquinolylmethyl)phenyl]-2-propynyl}acetamide] here?
The value was 6.25 µg/mL (≈ 19.9 µM).

`CCCCc1ccc(Cc2nccc3sccc23)cc1` [Example B187, 4-(4-Butylbenzyl)thieno[3,2-c]pyridine] was tested. Which “IC50 (lowest concentration at which cephalosporinase activity in the cell wall fraction became 50% or less compared to no compound)” value [2] did it give?
The value was 0.78 µg/mL (≈ 2.77 µM).

With `CCCCc1ccc(Cc2ncccc2OC)cc1` [Example B231, 2-(4-Butylbenzyl)-3-methoxypyridine] as the compound, how does the “IC50 (lowest concentration at which cephalosporinase activity in the cell wall fraction became 50% or less compared to no compound)” value [2] read?
The value was 0.78 µg/mL (≈ 3.05 µM).

For `CCCCc1ccc(Cc2nccc3ccsc23)cc1` [Example B195, 7-(4-Butylbenzyl)thieno[2,3-c]pyridine], which “IC50 (lowest concentration at which cephalosporinase activity in the cell wall fraction became 50% or less compared to no compound)” value [2] is on record?
The value was 0.39 µg/mL (≈ 1.39 µM).

`CCCCc1ccc(Cc2nccc3ccccc23)c(O)c1` [Example B85, 5-Butyl-2-(1-isoquinolylmethyl)phenol] was tested. Which “IC50 (lowest concentration at which cephalosporinase activity in the cell wall fraction became 50% or less compared to no compound)” value [2] did it give?
Its value is 0.20 µg/mL (≈ 0.686 µM).

What does the source list for `CCCCc1ccc(Cc2nccc3ccccc23)cc1` [compound (Ia), 1-(4-butylbenzyl)isoquinoline]?
concentration at which growth inhibition was observed [3]: ≥ 3.13 µg/mL; adhesion of C. albicans to animal cells [4]: inhibited to about a half; growth inhibition of C. albicans (C. albicans; 1.56 μg/ml): growth inhibition cannot be observed; growth of C. albicans (C. albicans; no concentration stated): inhibits the growth; flocculent fibrous structure of the outermost layer of the cell having high electron density (C. albicans cell wall): disappeared leaving a small amount of the layer with high electron density; influence on cephalosporinase activity in culture supernatant and cell wall fractions [5]: no influence was observed; growth inhibition ([1]; CW63/GWT1 strain, >3.13 μg/ml, FIG. 6): growth inhibition was not observed; sensitivity or resistance of the GWT1-overexpressed strain [1]: showing resistance; influence on growth of the GWT1-deficient strain (GWT1-deficient strain): growth is not influenced; resistance of clone expressing a single copy of mutant GWT1 gene (R1 or R5) [6]: resistance to the aforementioned compound of the formula (Ia) was seen

How did the “sensitivity or resistance” value [1] turn out when `C[C@@H]1C[C@@H]([C@H](O)CC2CC(=O)NC(=O)C2)C(=O)[C@@H](C)C1` [cycloheximide] was run?
The value was “sensitive”.

How did the “IC50 (lowest concentration at which cephalosporinase activity in the cell wall fraction became 50% or less compared to no compound)” value [2] turn out when `CCCCc1ccc(Cc2nccc(OC)c2OC)cc1` [Example B242, 2-(4-Butylbenzyl)-3,4-dimethoxypyridine] was run?
The value was 0.78 µg/mL (≈ 2.73 µM).

For `CCCCNC(=O)n1c(NC(=O)OC)nc2ccccc21` [benomyl], which “sensitivity or resistance” value [1] is on record?
Its value is “sensitive”.
